# Data from patent publication EP1247803A2, “Indolinone compounds suitable for modulation of protein kinases” (Sugen, Inc., priority 1996, dated 1998).
# Tests used:
# EGFR = target: T1, EGFR (Homo sapiens, UniProt P00533); experiment: EGFR ELISA assay (in vitro kinase activity, EGFR captured from A431 cell lysate); assay type: biochemical; design: concentration or dose not given beside the values
# T1 construct: Add 7 ug A431 cell lysate per well (EGFR source); endogenous in cells; host or cells: A431
# T1 sequence (P00533 25-1210): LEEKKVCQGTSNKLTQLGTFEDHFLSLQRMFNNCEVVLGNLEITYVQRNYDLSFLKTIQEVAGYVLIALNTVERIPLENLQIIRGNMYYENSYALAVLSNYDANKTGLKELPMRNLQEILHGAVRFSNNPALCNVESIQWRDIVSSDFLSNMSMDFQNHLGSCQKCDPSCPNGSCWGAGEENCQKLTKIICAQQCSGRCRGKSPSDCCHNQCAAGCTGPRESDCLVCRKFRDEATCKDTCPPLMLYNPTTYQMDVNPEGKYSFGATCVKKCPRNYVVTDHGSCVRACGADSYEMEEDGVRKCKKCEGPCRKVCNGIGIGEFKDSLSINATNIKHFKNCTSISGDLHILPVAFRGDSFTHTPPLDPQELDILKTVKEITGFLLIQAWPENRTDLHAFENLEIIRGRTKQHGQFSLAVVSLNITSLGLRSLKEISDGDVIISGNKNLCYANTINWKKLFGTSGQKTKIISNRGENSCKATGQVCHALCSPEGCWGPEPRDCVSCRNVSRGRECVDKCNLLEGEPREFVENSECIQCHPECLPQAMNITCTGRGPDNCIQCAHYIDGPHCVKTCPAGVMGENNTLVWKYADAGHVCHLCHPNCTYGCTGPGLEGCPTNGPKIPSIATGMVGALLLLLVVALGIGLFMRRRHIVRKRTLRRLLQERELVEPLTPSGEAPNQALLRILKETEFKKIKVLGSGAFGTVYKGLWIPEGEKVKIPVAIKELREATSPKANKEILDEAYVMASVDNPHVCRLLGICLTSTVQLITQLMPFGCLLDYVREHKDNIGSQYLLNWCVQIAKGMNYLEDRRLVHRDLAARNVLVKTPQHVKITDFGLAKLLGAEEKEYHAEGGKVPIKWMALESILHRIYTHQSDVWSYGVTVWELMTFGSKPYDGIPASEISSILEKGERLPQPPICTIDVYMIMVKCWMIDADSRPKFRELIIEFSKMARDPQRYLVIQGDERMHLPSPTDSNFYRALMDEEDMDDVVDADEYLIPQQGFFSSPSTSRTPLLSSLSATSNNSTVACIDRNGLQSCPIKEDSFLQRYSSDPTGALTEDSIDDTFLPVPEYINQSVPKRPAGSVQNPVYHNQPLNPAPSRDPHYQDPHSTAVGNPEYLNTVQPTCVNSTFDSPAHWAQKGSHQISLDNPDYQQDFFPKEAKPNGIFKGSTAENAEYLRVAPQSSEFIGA
# Description: To provide a consistent method for measuring the in vitro kinase activity of the EGFR in an Enzyme-linked immunosorbent assay (Elisa).
# Scope. The following protocol describes the procedures used to analyze protein tyrosine kinase activity on the EGFR in an Elisa. The procedure also describes the protocol for the initial screening of drugs for inhibition or activation of protein tyrosine kinase activity.
# Reagents and Supplies. • 1. […] 05-101 monoclonal anti-EGFR antibody (commercially available from UB1) -80° C, 1 ml aliquots • 3. […] TBST Buffer Formulation: 50 mM Tris pH 7.2 150 mM NaCl 0.1% Triton X-100 • 5. Blocking Buffer Formulation: 5% Carnation Instant Milk in PBS • 6. A431 cell lysate A431 cells are available from a variety of commercial sources and may be used lysed using conventional methods known to those skilled in the art or as described for lysis of the 3T3 cells in the EGF cellular assay described herein. -80° C, 1 ml aliquots • 7. TBS Buffer Formulation: 50 mM Tris pH 7.2 150 mM NaCl • 8. […] NUNC 96-well V bottom polypropylene plates Applied Scientific Catalog # AS-72092 • 11. EDTA Formulation: 200 mM EDTA pH 8.0 • 12. […] Goat anti-rabbit IgG peroxidase conjugate Biosource Catalog # ALI0404 • 14. ABTS Solution Formulation: 100 mM Citric Acid (anhydrous) 250 mM Na2HPO4 pH 4.0 0.5 mg/ml ABTS (2,2'-azino-bis(3-ethylbenzthiazoline-6-sulfonic acid) (Sigma Catalog # A-1888) Keep solution in dark at 4 C until ready to use • 15. Hydrogen peroxide 30% solution Fisher Catalog # H325 Store in the dark at 4 C until ready to use • 16. ABTS/H2O2 Formulation: 15 mls ABTS solution 2 ul H2O2 Prepare 5 minutes before use and room temperature • 17. 0.2 M HCL stock in H2O Procedure. • 1. Coat Corning 96-well elisa plates with 0.5 ug per well 05-101 antibody. Bring final volume to 100 ul per well with PBS. Coat plates overnight at 4° C. • 2. Remove unbound 05-101 from wells by inverting plate to remove liquid. Wash 1x with distilled H2O by filling wells Pat the plate on a paper towel to remove excess liquid. • 3. Block plates with 5% milk in PBS. 150 ul per well. Incubate plate 30 minutes while shaking on a microtiter plate shaker. • 4. Wash plate 3x with dionized water, then once with TBST • 5. Add 7 ug A431 cell lysate per well (EGFR source). Add PBS to final volume of 100 ul per well Incubate 30 minutes while shaking. • 6. Wash as described in step 4. • 7. At this point, drugs or extracts are added to the wells. Dilute drugs/extracts 1:100 (unless specified otherwise) in TBS + 10% DMSO in 96-well polypropylene plates. Add 120 ul TBS to ELISA plate containing captured EGFR. Add 13.5 ul diluted drugs/extracts to ELISA plate. […] Incubate plate 30 minutes while shaking. • 8. […] (150 ul final volume in well with 3 uM ATP/5 mM MnCl2 final concentration in well.) Incubate 5 minutes while shaking vigorously. *NOTE: It is critical that ATP/MnCl2 phosphorylates the receptor for 5 minutes only. It is best to add the ATP/MnCl2 with an 12 channel pipettor 1 row at a time leaving 20 seconds between each row so that the reaction may be stopped with EDTA exactly 5 minutes later (this depends on the number of plates being phosphorylated in one batch). Shake between each addition. • 9. After 5 minutes, to stop reaction, add 16.5 ul of 200 mM EDTA pH 8.0 for 20 mM final in well, shaking continuously between each addition. This is done using the same timing method as above. After last row has received EDTA, shake plate an additional minute. • 10. Wash 4x with deionized water, twice with TBST. • 11. Add rabbit polyclonal anti-phosphotyrosine serum. Dilute 1:3000 in TBST. Add 100 ul per well. Incubate 30-45 minutes while shaking. • 12. Wash as described above in step 4. • 13. Add BioSource anti-rabbit peroxidase conjugate antibody. Dilute 1:2000 in TBST. Add 100 ul per well. Incubate 30 minutes while shaking. • 14. Wash as described in step 4. • 15. Add 100 ul of ABTS/H2O2 solution to well. Incubate 5 to 10 minutes while shaking. Remove bubbles • 16. […]
# PDGF-R = PDGF-R (Homo sapiens, UniProt P09619); experiment: PDGF-R ELISA; assay type: cell-based
# PDGF-R, sequence (P09619 33-1106, species assumed): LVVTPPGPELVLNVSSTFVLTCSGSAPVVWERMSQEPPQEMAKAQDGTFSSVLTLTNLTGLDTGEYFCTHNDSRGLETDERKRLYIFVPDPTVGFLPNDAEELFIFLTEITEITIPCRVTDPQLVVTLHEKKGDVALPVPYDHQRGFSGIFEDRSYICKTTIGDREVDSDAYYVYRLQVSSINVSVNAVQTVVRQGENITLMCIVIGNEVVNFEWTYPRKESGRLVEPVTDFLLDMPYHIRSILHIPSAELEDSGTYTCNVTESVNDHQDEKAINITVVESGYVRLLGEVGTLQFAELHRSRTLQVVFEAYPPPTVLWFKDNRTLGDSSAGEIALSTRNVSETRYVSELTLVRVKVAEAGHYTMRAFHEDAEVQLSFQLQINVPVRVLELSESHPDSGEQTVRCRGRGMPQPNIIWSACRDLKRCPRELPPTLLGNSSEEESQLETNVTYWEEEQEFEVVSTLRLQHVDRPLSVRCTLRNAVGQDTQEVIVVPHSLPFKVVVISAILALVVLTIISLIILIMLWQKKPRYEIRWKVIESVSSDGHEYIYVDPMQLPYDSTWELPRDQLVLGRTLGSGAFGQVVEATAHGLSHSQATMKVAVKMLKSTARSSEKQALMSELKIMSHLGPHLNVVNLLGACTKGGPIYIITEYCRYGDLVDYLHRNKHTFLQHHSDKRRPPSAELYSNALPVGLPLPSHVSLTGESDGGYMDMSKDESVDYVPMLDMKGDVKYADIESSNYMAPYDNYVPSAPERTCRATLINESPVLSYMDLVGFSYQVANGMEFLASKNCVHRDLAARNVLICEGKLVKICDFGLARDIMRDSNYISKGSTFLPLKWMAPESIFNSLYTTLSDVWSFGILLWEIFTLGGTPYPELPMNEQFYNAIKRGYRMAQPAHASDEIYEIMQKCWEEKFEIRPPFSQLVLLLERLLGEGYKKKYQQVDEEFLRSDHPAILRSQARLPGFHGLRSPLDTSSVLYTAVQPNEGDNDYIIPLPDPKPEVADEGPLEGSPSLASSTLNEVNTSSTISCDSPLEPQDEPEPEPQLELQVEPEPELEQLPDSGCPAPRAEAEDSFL
# Description: A PDGF-R ELISA is described in International Patent Publication No. WO 96/40116, published December 19, 1996 by Tang et al.
# MET = MET biochemical kinase assay; design: species or system human; concentration or dose not given beside the values
# Description: A met biochemical kinase assay may be performed for met generally as described above for other kinases by substituting that or the other kinases. In particular, ELISA plates are coated with goat anti-rabbit Fc antibodies, which are used to capture commercially available (from Santa Cruz Biotechnology) rabbit polyclonal antibodies to the cytoplasmic domain of human MET. […] The chimeric receptors, or MET, from these lysates are captured on the antibody coated plates. After washing away extraneous proteins, test compounds are added and an in vitro kinase assay is performed by addition of an appropriate kinase buffer (containing ATP, divalent metal ions, etc.). Incorporation of phosphate into the captured receptors is detected with an anti-phosphotyrosine antibody conjugate with horse radish peroxidase using TMB as a substrate for colorimetric detection.
SMILES,Biochem EGFR %Inhibition (EGFR) [%],PDGF Kinase %Inhibition (PDGF-R) [%],Met Kinase % Inhibition (MET) [%]
COc1c(I)cc(C=C2C(=O)Nc3ccc(I)cc32)cc1C(C)(C)C [10732/B11],9.3,70.9,73.7
C=C(C)C1CC=C(C=C2C(=O)Nc3ccc(S(=O)(=O)NC)cc32)CC1 (centres unmarked) [10731/D04],15.8,6.5,24.5
CC(C)c1cc(C=C2C(=O)Nc3c(Br)cc(Br)cc32)cc(C(C)C)c1Oc1ccccc1 [10732/A04],-10.6,-9.4,34.8
O=C1Nc2ccc(I)cc2C1=CC(c1cccs1)C(F)(F)F (centres unmarked) [10732/B02],-26.0,23.5,78.0
Cc1cc2occ(C=C3C(=O)Nc4ccc(S(=O)(=O)Nc5ccc(C(F)(F)F)cc5)cc43)c(=O)c2cc1C [10731/E03],10.4,15.6,20.7
COc1c(Br)cc(C=C2C(=O)Nc3c(Br)cc(Br)cc32)cc1C(C)(C)C [10732/A07],-0.3,0.7,26.1
COc1c(Br)cc(C=C2C(=O)Nc3ccc(Br)c(C)c32)cc1C(C)(C)C [10732/C07],-28.6,4.3,26.5
C=C(C)C1CC=C(C=C2C(=O)Nc3ccc(S(=O)(=O)N4CCOCC4)cc32)CC1 (centres unmarked) [10731/F04],5.0,3.2,17.0
CNS(=O)(=O)c1ccc2c(c1)C(=Cc1coc3ccc(C(C)C)cc3c1=O)C(=O)N2 [10731/D05],53.9,46.0,92.7
CN1C(=O)C(=C2C(=O)Nc3ccc(S(=O)(=O)N4CCOCC4)cc32)c2ccccc21 [10731/F10],7.9,28.4,48.1
CN1C(=O)C(=C2C(=O)Nc3ccc(S(=O)(=O)Nc4ccc(C(F)(F)F)cc4)cc32)c2ccccc21 [10731/E10],25.1,21.7,35.5
CNS(=O)(=O)c1ccc2c(c1)C(=Cc1coc3ccc([N+](=O)[O-])cc3c1=O)C(=O)N2 [10731/D07],25.9,2.7,45.9
CCOC(=O)c1cc(C=C2C(=O)Nc3ccc(S(=O)(=O)NC)cc32)oc1C [10718/D06],20.0,,11.1
O=C1Nc2ccc(S(=O)(=O)Nc3ccc(C(F)(F)F)cc3)cc2C1=Cc1c[nH]c(=O)[nH]c1=O [10731/E08],40.1,8.9,59.0
CNS(=O)(=O)c1ccc2c(c1)C(=Cc1cc(Br)c(OCc3ccccc3)c(C(C)(C)C)c1)C(=O)N2 [10732/D08],-20.6,30.5,49.4
Cc1c(Br)ccc2c1C(=Cc1cc(Cl)c(OCc3ccccc3)c(C(C)(C)C)c1)C(=O)N2 [10732/C10],1.2,5.8,43.0

SMILES,Biochem EGFR %Inhibition (EGFR) [%],PDGF Kinase %Inhibition (PDGF-R) [%],Met Kinase % Inhibition (MET) [%]
CNS(=O)(=O)c1ccc2c(c1)C(=Cc1ccc(OC)c(C(C)(C)C)c1)C(=O)N2 [10732/D05],-36.7,4.3,30.2
CCn1c2ccccc2c2cc(C=C3C(=O)Nc4ccc(CCCl)cc43)ccc21 [10731/G02],4.7,-10.1,15.2
Cc1c(Br)ccc2c1C(=CC(c1cccs1)C(F)(F)F)C(=O)N2 (centres unmarked) [10732/C02],-6.5,7.3,40.1
Cc1c(Br)ccc2c1C(=Cc1cc(Br)c(OCc3ccccc3)c(C(C)(C)C)c1)C(=O)N2 [10732/C08],1.6,17.9,54.5
CC(C)c1ccc2occ(C=C3C(=O)Nc4ccc(S(=O)(=O)N5CCOCC5)cc43)c(=O)c2c1 [10731/F05],19.5,20.3,84.4
O=C1Nc2ccc(S(=O)(=O)N3CCOCC3)cc2C1=Cc1coc2ccc([N+](=O)[O-])cc2c1=O [10731/F07],37.7,1.3,34.7
CC(C)(C)c1cc(C=C2C(=O)Nc3c(Br)cc(Br)cc32)cc(Cl)c1OCc1ccccc1 [10732/A10],6.1,7.3,20.3
C=C(C)C1CC=C(C=C2C(=O)Nc3ccc(CCCl)cc32)CC1 (centres unmarked) [10731/G04],7.1,0.3,23.3
C=C(C)C1CC=C(C=C2C(=O)Nc3ccc(S(=O)(=O)Nc4ccc(C(F)(F)F)cc4)cc32)CC1 (centres unmarked) [10731/E04],13.6,30.8,55.6
CNS(=O)(=O)c1ccc2c(c1)C(=Cc1ccc3ccccc3c1O)C(=O)N2 [10718/D04],52.0,,92.9
Cc1c(Br)ccc2c1C(=Cc1ccc([N+](=O)[O-])o1)C(=O)N2 [10718/C11],-0.2,,10.1
Cc1c(Br)ccc2c1C(=Cc1ccco1)C(=O)N2 [10718/C10],-18.7,,4.4
CCOC(=O)CCc1c(C(=O)OCC)[nH]c(C=C2C(=O)Nc3ccc(S(=O)(=O)NC)cc32)c1CC(=O)OCC [10718/D05],2.8,,10.6
CNS(=O)(=O)c1ccc2c(c1)C(=Cc1cc(OC)cc(Br)c1O)C(=O)N2 [10718/D03],61.9,,92.9
CCOC(=O)c1c(C)[nH]c(C=C2C(=O)Nc3ccc(S(=O)(=O)NC)cc32)c1C [10718/D02],14.4,,32.0
